Among the data in patent US5420122A, “3-pyrrolidinylthio-1-azabicyclo-[3.2.0]hept-2-ene-2-carboxylic acid compounds” (Fujisawa Pharmaceutical Co., Ltd., priority 1986, dated 1995) are MIC values, retold here.

Molecules are shown by their SMILES. In brackets after ≈: the same amount, converted by molar mass.

The test concerns Proteus vulgaris 49. The test is described as follows: in vitro antimicrobial activity, two-fold agar-plate dilution method (MIC). It is filed as cell-based. The following applies: heart infusion agar, 37° C., 20 hours, 10^6 viable cells per ml. The protocol:
in vitro Antimicrobial Activity
in vitro Antimicrobial Activity was determined by the two-fold agar-plate dilution method as described below.
One loopful of an overnight culture of each test strain in Trypticase-soy broth (10^6 viable cells per ml) was streaked on heart infusion agar (HI-agar) containing graded concentrations of the test compound, and the minimal inhibitory concentration (MIC) was expressed in terms of ug/ml after incubation at 37° C. for 20 hours.

Broadly, the MIC is the lowest concentration that inhibits growth of the organism. Low values mean a more susceptible organism, high ones a less susceptible organism. Take `C[C@@H](O)[C@H]1C(=O)N2C(C(=O)O)=C(S[C@@H]3CN[C@H](c4nc[nH]n4)C3)[C@H](C)[C@H]12` [Test Compound, (4R,5S,6S )-6-[(1R) -1-Hydroxyethyl]-4-methyl-7-oxo-3-[(2S,4S)-2-(1H-1,2,4-triazol-3-yl)pyrrolidin-4-ylthio]-1-azabicyclo [3.2.0]hept-2-ene-2-carboxylic acid]: 0.05 µg/mL (≈ 0.132 µM) was the least that counted as inhibitory (MIC).
